Among the data in ChEMBL document CHEMBL3507680, “University of Dundee, Gates Library screen for HepG2 cell viability” are cytotoxicity values, retold here.

Each structure is given as a SMILES string.

The nature of the data set: Human HepG2 cell viability assay in 384 well format. Also noted: dose 125 nL, time 70.5 hour; concentration not given beside the values. The format is toxicity, cell-based. The note with it: HepG2 cells, read-out: Inhibition.
For the compound `COCCNS(=O)(=O)c1cccc2c1CN(C(=O)c1cnccn1)CC2`, the cytotoxicity at 70.5 h was -3.11%.

With `C[C@@H]1CN(C2CCN(c3ccccc3F)CC2)C[C@]1(C)O`, the cytotoxicity at 70.5 h is -6.48%.

As to `Cn1c(-c2ccccc2Cl)nc2cc(C(=O)NCC3(CO)CC3)cnc21`, the cytotoxicity at 70.5 h is -10%.

As to `COC(=O)C(C)(C)NC(=O)c1cc(COc2ccccc2OC)[nH]n1`, the cytotoxicity at 70.5 h worked out at 10.6%.

As to `OCC1(O)CCN(Cc2ccc(C3CCCCO3)o2)CC1` (stereo not drawn), the cytotoxicity at 70.5 h is -1.61%.

For the compound `O=C(NCCC1COc2ccccc2O1)c1ccc(-c2cc[nH]n2)nc1` (stereo not drawn), the cytotoxicity at 70.5 h is -4.68%.

In the case of `CCC[C@H]1CN(S(C)(=O)=O)C[C@@H]1NC(=O)COC(C)C`, the cytotoxicity at 70.5 h is -5.47%.

As for `COc1ccc(F)c(-c2ncccc2C(=O)N2C[C@H]3CC[C@@H]2C3)c1`, the cytotoxicity at 70.5 h was -9.45%.

For the compound `Cc1ccc(C(=O)O)cc1CNC(=O)CN1CC[C@](C)(O)C(C)(C)C1`, the cytotoxicity at 70.5 h was -6.88%.

Regarding `Cc1ccsc1-c1nccn1CCS(=O)(=O)N1CCCC1`, the cytotoxicity at 70.5 h came to 8.18%.

As to `Cc1ccc(C(=O)N2CCCC(Cn3cc(C(C)(C)N)nn3)C2)s1` (stereo not drawn), the cytotoxicity at 70.5 h was -4.81%.

`O=C(Cc1ccccc1C(F)(F)F)N1CCC2(CC1)[C@H](O)C[C@@H]2O`: the cytotoxicity at 70.5 h is -6.88%.

With `O=c1cc(N2CCNCC2)cnn1CCc1ccc(F)cc1`, the cytotoxicity at 70.5 h was -4.81%.

As for `Cc1ccc(C)c(-n2cc(CN3CC[C@@H](O)C3)c(-c3ccccc3)n2)c1`, the cytotoxicity at 70.5 h was -0.782%.

As for `O=C1CN(Cc2cn(C3CCN(C4CSCCSC4)CC3)nn2)CCN1`, the cytotoxicity at 70.5 h was -13.2%.

`CN1[C@H](CO)C[C@H](CNCc2ccc(Cl)c(F)c2)[C@@H]1c1ccccc1F`: the cytotoxicity at 70.5 h is -3.08%.

As to `COCCn1cnnc1C(C)NC(=O)c1[nH]c2c(C)cc(C)cc2c1C` (stereo not drawn), the cytotoxicity at 70.5 h was determined as 14%.

As to `CCCC(=O)N(Cc1ccncc1)C(C)CC` (stereo not drawn), the cytotoxicity at 70.5 h is -6.83%.

Regarding `Cc1cc(C)c2nc(C)cc(C(=O)NC(C)c3nnn[nH]3)c2c1` (stereo not drawn), the cytotoxicity at 70.5 h was 6.58%.

Take `CC(C)[C@H]1CN(c2cnccn2)C[C@@H]1NC(=O)C1(C#N)CCOCC1`: the cytotoxicity at 70.5 h was -6.21%.

As to `CN1CCN(C(=O)c2ccnc(N3CCOC(C(F)(F)F)C3)c2)CC1` (stereo not drawn), the cytotoxicity at 70.5 h is 19%.

For the compound `CCc1nccn1CCC(=O)N1CC[C@@H](c2ccc(F)cc2)[C@H](O)C1`, the cytotoxicity at 70.5 h was -12.3%.

As to `CC(C)(C)c1ccn(C2(C(=O)O)CCN(c3ccnc(N)n3)CC2)n1`, the cytotoxicity at 70.5 h is -3.43%.

Consider `CCC(=O)c1ccc(OCC(=O)NC(C)c2nnn[nH]2)cc1` (stereo not drawn), for which the cytotoxicity at 70.5 h is -0.478%.

`Cc1cc(C(=O)NC(C)c2nnn[nH]2)c2ccc(C)c(C)c2n1` (stereo not drawn): the cytotoxicity at 70.5 h turned out to be 34.8%.

In the case of `CSc1ccc(C(=O)N2CCCC(Nc3ccc(F)cc3)C2)cc1` (stereo not drawn), the cytotoxicity at 70.5 h is -0.171%.

With `O=C1CC[C@H]2CN(Cc3cccc(F)c3)CC[C@H]2N1CCc1c[nH]cn1`, the cytotoxicity at 70.5 h was -2.79%.

For `Clc1cc(NCc2nccs2)nc2[nH]ccc12`, the cytotoxicity at 70.5 h was -30.7%.

On to `O=C(NC[C@H]1CCCN1)c1cc(COc2cccc(C(F)(F)F)c2)[nH]n1`, for which the cytotoxicity at 70.5 h is -2.98%.

In the case of `O=C(c1cccc2ccnn12)N1CCCC1Cn1cccn1` (stereo not drawn), the cytotoxicity at 70.5 h was -2.56%.

As to `Cc1cc(C(=O)N[C@H]2COC[C@@H]2N2CCOCC2)c2ccc(F)cc2n1`, the cytotoxicity at 70.5 h is -8.8%.

Turning to `OC1(CN2CCCCC2)CCN(Cc2c[nH]c(CC3CCCC3)n2)C1` (stereo not drawn), the cytotoxicity at 70.5 h is -8.48%.

`CN(C)C(=O)c1cccnc1-c1ccc2c(c1)OCCO2`: the cytotoxicity at 70.5 h is -18.6%.

`COCc1ccc(C(=O)N2CCCN(c3ccc(F)cc3)CC2)s1`: the cytotoxicity at 70.5 h worked out at 5.91%.

Turning to `Cc1cc2nc(C(C)C)cc(NC(C)c3nncn3C)n2n1` (stereo not drawn), the cytotoxicity at 70.5 h was -17.3%.

Consider `CCN(Cc1cnn(C)c1)C[C@H]1CC[C@@H](Cc2cccc(C#N)c2)O1`, for which the cytotoxicity at 70.5 h is -5.55%.

In the case of `CC(=O)N1CCC(N2CCN(Cc3ccc(C)o3)C(CCO)C2)CC1` (stereo not drawn), the cytotoxicity at 70.5 h is -6.87%.

For the compound `COc1cccn(C(C)C(=O)NC2CCCC2)c1=O` (stereo not drawn), the cytotoxicity at 70.5 h was -1.93%.

Turning to `CCc1nc(C)c(-c2nccn2CC2CCN(C3CCCC3)CC2)[nH]1`, the cytotoxicity at 70.5 h is -2.56%.

For the compound `CC(C)(C)C(=O)NCCC1CN(Cc2ccccc2F)CCO1` (stereo not drawn), the cytotoxicity at 70.5 h is -9.52%.

Regarding `CC(CN1CC[C@@H]2CCCC[C@@H]2C1)n1cnc2ccccc21` (stereo partly drawn), the cytotoxicity at 70.5 h stood at 21.4%.

In the case of `Cc1ncc(S(C)(=O)=O)c(N(C)CCCc2cnn(C)c2)n1`, the cytotoxicity at 70.5 h was -3.73%.

As to `Cc1nc(C(F)(F)F)nc(N2CCC3(CC2)CC(C(=O)O)N(C)C3)c1C` (stereo not drawn), the cytotoxicity at 70.5 h is -5.6%.

With `c1coc(-c2nc3c(c(N4CCCN5CCC[C@H]5C4)n2)CCNCC3)c1`, the cytotoxicity at 70.5 h is -2.19%.

In the case of `Cc1ccsc1-c1nccn1C1CC(=O)N(C(C)C)C1` (stereo not drawn), the cytotoxicity at 70.5 h is -5.72%.

For `CN(C)CC1(O)CCCN(C(=O)Cc2ccc(Cl)c(Cl)c2)C1` (stereo not drawn), the cytotoxicity at 70.5 h is -2.73%.

Turning to `FC(F)(F)C1CN(Cc2cccc(-c3ccccn3)c2)CCO1` (stereo not drawn), the cytotoxicity at 70.5 h is -6.31%.

With `CNc1cc(C)nc(N2CCC3(CC2)[C@H](O)C[C@@H]3O)n1`, the cytotoxicity at 70.5 h was -6.92%.

For the compound `Cn1ccnc1CN1CCC(CNS(=O)(=O)c2cccnc2)C1` (stereo not drawn), the cytotoxicity at 70.5 h came out at 7.54%.

In the case of `CCn1ccnc1C1CCN(c2ncnc3ccsc23)CC1`, the cytotoxicity at 70.5 h was 7.55%.

`COc1ccc(/C=C/CN2CCN(c3nccnc3C)CC2)cc1`: the cytotoxicity at 70.5 h was -5.85%.

Consider `Cc1ccsc1-c1nc(CN(C)Cc2cc[nH]n2)c(C)o1`, for which the cytotoxicity at 70.5 h was found to be 12.8%.

With `Cc1ccnc(CC(C)N(C)Cc2ccc3c(c2)OCCO3)c1` (stereo not drawn), the cytotoxicity at 70.5 h was -0.147%.

For `N#Cc1nccnc1N1CCN(CCOCc2ccccc2)CC1`, the cytotoxicity at 70.5 h was found to be 16.9%.

For the compound `Cc1[nH]c(=O)[nH]c(=O)c1CC(=O)N1CCCN(CC2CC2)C(C(C)C)C1` (stereo not drawn), the cytotoxicity at 70.5 h was determined as 0.527%.

Regarding `COc1cc(N(C)Cc2cccc(-n3cccn3)c2)nc(N)n1`, the cytotoxicity at 70.5 h was -1.55%.

`Cc1ccc(C(=O)N2C[C@@H]3CC[C@H](C2)N(Cc2ccccc2)C3)cn1`: the cytotoxicity at 70.5 h turned out to be 17.8%.

Turning to `Cc1ccc(CN2CC[C@@]3(O)CCN(S(=O)(=O)N(C)C)C[C@H]3C2)cc1C`, the cytotoxicity at 70.5 h was -16%.

Consider `CCCn1ncc(C(=O)N(CCOC)Cc2c(C)nn(CC)c2C)c1C`, for which the cytotoxicity at 70.5 h is -7.73%.

`Cc1nn2c(N3CCC(C(N)=O)CC3)cc(-c3ccccc3)nc2c1C`: the cytotoxicity at 70.5 h is -2.04%.

For the compound `CCn1ccnc1CN1CCC(Oc2ccccc2F)(C(=O)O)CC1`, the cytotoxicity at 70.5 h was -0.995%.

Turning to `Nc1ccc(CC2COc3ccccc3C2)cn1` (stereo not drawn), the cytotoxicity at 70.5 h was -5.61%.

Take `CC(O)CN1CC2(CCC1=O)CCN(Cc1cc(F)ccc1Cl)CC2` (stereo not drawn): the cytotoxicity at 70.5 h was -2.56%.

For the compound `Cc1cc(N2CCC(n3cc(CCCO)nn3)CC2)ccn1`, the cytotoxicity at 70.5 h was -9.19%.

In the case of `Cc1cnccc1CN(C)C(=O)C(C)(C)NC(=O)c1cccs1`, the cytotoxicity at 70.5 h was 0.902%.

For the compound `Cc1ccsc1[C@@H]1CCN(C(=O)Cn2cc3ccccc3n2)C[C@H]1O`, the cytotoxicity at 70.5 h came out at 15.1%.

Regarding `O=C(c1ccco1)N1CCC(n2cc(-c3ccsc3)nn2)CC1`, the cytotoxicity at 70.5 h was -5.81%.

For `Cc1ccc(CN2CCN(Cc3ccncc3)CC2=O)cc1`, the cytotoxicity at 70.5 h is -0.378%.
